Measurements as given in patent US7138543B2, “Thiolalkyl benzoic acid derivatives” (Guilford Pharmaceuticals Inc., priority 2001, dated 2006).
pEC50, pIC50: −log10 of the molar value.

Columns and labels:
NAALADase = biological target: T1, NAALADase (Homo sapiens, UniProt Q04609); assay: In vitro inhibition of NAALADase activity; format: biochemical; settings: unit inferred
T1 construct: from tissue; host or cells: unspecified tissue
Procedure: In vitro Inhibition of NAALADase Activity
Protocol for Assaying in vitro Inhibition of NAALADase Activity
The following were combined in assay tubes: 100 μL of 10 mM CoCl2, 250 μL of 200 mM Tris chloride, 100 μL tissue, 100 μL of 10 mM NAALADase inhibitor in Bakers H2O, and Bakers H2O to make a total volume of 950 μL. Each assay tube was then incubated for 10 minutes in a 37° C. water bath. […] The assay was stopped by adding 1.0 ml of 0.1 M sodium phosphate.
Glutamate released by the action of the NAALADase enzyme was separated from the assay solution using an anion exchange resin. The resin was equilibrated to 25° C., 2.0 ml of the resin was added to a Pasteur pipette pre-loaded with a single glass bead, and each column was washed twice with distilled H2O. A column was placed over a scintillation vial and 200 μL of an assay sample was loaded onto the column. After draining, glutamate was eluted using two 1.0 ml washes of 1 M formic acid. After addition of 10 ml of scintillation cocktail, each sample was counted for 2 minutes on a scintillation counter.

cortical cell cultures = assay: In vitro assay on ischemia (potassium cyanide and 2-deoxyglucose insult); format: cell-based; settings: concentration required to cause a 50% reduction in glutamate toxicity following an ischemic insult; unit inferred
Procedure: In vitro Assay on Ischemia
To examine the in vitro effect of the compounds of the invention on ischemia, cortical cell cultures were treated with various compounds of the invention during an ischemic insult utilizing potassium cyanide and 2-deoxyglucose, and for one hour thereafter. For a description of the experimental method used, see Vornov et al., J. Neurochem., Vol. 65, No. 4, pp. 1681–1691 (1995).

[1] = test system: chronic constrictive injury-induced rats; assay: Neuropathic pain in CCI model (sciatic nerve ligation); format: in vivo
Procedure: In vivo Assay of NAALADase Inhibitors on Neuropathic Pain in CCI Model
Sciatic nerve ligation, consisting of 4 ligatures tied loosely around the sciatic nerve at 1 mm intervals proximal to the nerve trifurcation, was performed on rats. […] The rats were habituated to a Hargreaves apparatus. An infrared heat source was directed onto the dorsal surface of each rat's hindpaws and the time taken for the rat to withdraw its paws was noted. The difference in scores between the latency of the response for the paw on the operated side versus the paw on the unoperated control side was determined.

T1 sequence (Q04609 whole entry): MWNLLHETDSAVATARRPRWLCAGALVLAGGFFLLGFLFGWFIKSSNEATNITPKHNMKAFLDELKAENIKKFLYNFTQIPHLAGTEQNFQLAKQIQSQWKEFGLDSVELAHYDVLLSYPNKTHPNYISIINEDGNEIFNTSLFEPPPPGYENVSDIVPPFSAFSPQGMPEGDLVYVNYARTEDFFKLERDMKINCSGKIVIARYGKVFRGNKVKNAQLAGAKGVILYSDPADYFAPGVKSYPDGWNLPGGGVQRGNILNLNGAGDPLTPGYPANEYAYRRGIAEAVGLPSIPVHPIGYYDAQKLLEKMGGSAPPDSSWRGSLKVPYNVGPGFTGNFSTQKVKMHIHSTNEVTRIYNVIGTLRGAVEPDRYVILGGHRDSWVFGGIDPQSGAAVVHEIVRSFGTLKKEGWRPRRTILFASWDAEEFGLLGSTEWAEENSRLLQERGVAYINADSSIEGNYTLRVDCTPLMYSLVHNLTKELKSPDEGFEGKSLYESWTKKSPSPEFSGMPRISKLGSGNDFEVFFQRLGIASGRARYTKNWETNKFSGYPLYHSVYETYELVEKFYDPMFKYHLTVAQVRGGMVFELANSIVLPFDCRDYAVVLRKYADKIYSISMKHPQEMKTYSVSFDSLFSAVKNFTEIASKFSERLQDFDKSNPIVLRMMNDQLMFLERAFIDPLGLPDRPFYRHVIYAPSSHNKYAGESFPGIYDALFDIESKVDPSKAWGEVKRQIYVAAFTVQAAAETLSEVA

SMILES	pIC50 (NAALADase)	pEC50 (cortical cell cultures)	also measured
COc1ccc(COc2cccc(CCS)c2C(=O)O)cc1 [Compound 36, 2-(2-mercaptoethyl)-6-[(4-methoxyphenyl)methoxy]-benzoic acid]	7.00	–	–
Cc1ccc(COc2cccc(CCS)c2C(=O)O)cc1 [Compound 37, 2-(2-mercaptoethyl)-6-[(4-methylphenyl)methoxy]-benzoic acid]	7.15	–	–
O=C(O)c1ccccc1COc1cccc(CCS)c1C(=O)O [Compound 8, 2-[(2-carboxyphenyl)methoxy]-6-(2-mercaptoethyl)-benzoic acid]	–	7.54	–
CC(C)(C)c1ccc(COc2cccc(CCS)c2C(=O)O)cc1 [Compound 42, 2-(4-tert-butyl-benzyloxy)-6-(2-mercapto-ethyl)-benzoic acid]	6.52	–	–
O=C(O)c1cc(CS)ccc1OCc1ccccc1 [Compound 27, 5-(mercaptomethyl)-2-(phenylmethoxy)-benzoic acid]	–	6.14	–
O=C(O)c1c(CCS)cccc1OCc1ccc(Br)cc1 [Compound 41, 2-(4-bromo-benzyloxy)-6-(2-mercapto-ethyl)-benzoic acid]	5.90	–	–
O=C(O)c1c(CCS)cccc1OCc1cccc(Cl)c1 [Compound 46, 2-(3-chloro-benzyloxy)-6-(2-mercapto-ethyl)-benzoic acid]	4.91	–	–
O=C(O)c1cc(COc2cccc(CCS)c2C(=O)O)ccc1Br [Compound 38, 2-[(4-bromo-3-carboxyphenyl)methoxy]-6-(2-mercaptoethyl)-benzoic acid]	9.10	–	–
O=C(O)c1ccc(COc2cccc(CCS)c2C(=O)O)cc1Br [Compound 20, 2-[(3-bromo-4-carboxyphenyl)methoxy]-6-(2-mercaptoethyl)-benzoic acid]	7.74	–	–
COc1cccc(CCS)c1C(=O)O [Compound 44, 2-(2-mercapto-ethyl)-6-methoxy-benzoicacid]	6.02	–	–
COc1ccc(C(=O)O)c(COc2cccc(CCS)c2C(=O)O)c1 [Compound 39, 2-[(2-carboxy-5-methoxyphenyl)methoxy]-6-(2-mercaptoethyl)-benzoicacid]	7.40	–	–
O=C(O)c1c(CCS)cccc1OCc1ccc(Cl)cc1 [Compound 32, 2-[(4-chlorophenyl)methoxy]-6-(2-mercaptoethyl)-benzoic acid]	7.60	–	–
O=C(O)c1ccccc1CS [Compound 31, 2-(mercaptomethyl)-benzoic acid]	4.00	–	–
O=C(O)c1cc(CS)ccc1Br [Compound 25, 2-bromo-5-(mercaptomethyl)-benzoic acid]	–	5.70	–
O=C(O)c1cccc(-c2ccc(CS)cc2C(=O)O)c1 [Compound 26, 4-(mercaptomethyl)-[1,1′-biphenyl]-2,3′-dicarboxylic acid]	7.61	6.82	–
O=C(O)c1cc(Br)cc(COc2cccc(CCS)c2C(=O)O)c1 [Compound 34, 2-[(3-bromo-5-carboxyphenyl)methoxy]-6-(2-mercaptoethyl)-benzoic acid]	9.05	–	–

SMILES	pIC50 (NAALADase)	pEC50 (cortical cell cultures)	also measured
O=C(O)c1c(CCS)cccc1OC(c1ccccc1)c1ccccc1 [Compound 45, 2-benzhydryloxy-6-(2-mercapto-ethyl)-benzoic acid]	4.45	–	–
O=C(O)c1c(CCS)cccc1OCc1ccccc1-c1ccccc1 [Compound 33, 2-(biphenyl-2-ylmethoxy)-6-(2-mercaptoethyl)-benzoic acid]	7.02	–	–
O=C(O)c1cccc(COc2ccc(CCS)c(C(=O)O)c2)c1 [Compound 6, 5-[(3-carboxyphenyl)methoxy]-2-(2-mercaptoethyl)-benzoic acid]	–	7.08	–
O=C(O)c1c(CCS)cccc1OCc1cccc(Br)c1 [Compound 43, 2-(3-bromo-benzyloxy)-6-(2-mercapto-ethyl)-benzoic acid]	6.98	–	–
O=C(O)c1cccc(-c2cccc(CCS)c2C(=O)O)c1 [Compound 10, 3-(2-mercaptoethyl)-[1,1′-biphenyl]-2,3′-dicarboxylic acid]	–	–	withdrawal latency difference scores between operated and unoperated paws ([1]; 0.1 mg/kg for 18 days after sciatic nerve ligation, FIG. 14): normalized the difference in scores
O=C(O)c1ccc(Br)c(COc2cccc(CCS)c2C(=O)O)c1 [Compound 35, 2-[(2-bromo-5-carboxyphenyl)methoxy]-6-(2-mercaptoethyl)-benzoic acid]	8.92	–	–
O=C(O)c1cccc(CS)c1 [Compound 30, 3-(mercaptomethyl)-benzoic acid]	–	6.21	–
O=C(O)c1cccc(CCS)c1 [Compound 29, 3-(2-mercaptoethyl)-benzoic acid]	–	5.62	–
O=C(O)c1cccc(COc2cccc(CCS)c2C(=O)O)c1 [Compound 40, 2-(3-carboxy-benzyloxy)-6-(2-mercapto-ethyl)-benzoic acid]	9.00	–	–
O=C(O)c1ccc(COc2ccc(CCS)c(C(=O)O)c2)cc1 [Compound 3, 5-[(4-carboxyphenyl)methoxy]-2-(2-mercaptoethyl)-benzoic acid]	–	5.00	–
O=C(O)c1c(CCS)cccc1OCc1ccccc1 [Compound 7, 2-(2-mercaptoethyl)-6-(phenylmethoxy)-benzoic acid]	7.05	7.02	–
O=C(O)c1ccc(COc2cccc(CCS)c2C(=O)O)cc1 [Compound 9, 2-[(4-carboxyphenyl)methoxy]-6-(2-mercaptoethyl)-benzoic acid]	7.54	7.72	withdrawal latency difference scores between operated and unoperated paws ([1]; 10, 1 or 0.1 mg/kg for 15 days after sciatic nerve ligation, FIG. 13): normalized the difference in scores
O=C(O)c1cc(OCc2ccccc2)ccc1CCS [Compound 4, 2-(2-mercaptoethyl)-5-(phenylmethoxy)-benzoic acid,]	–	5.02	–
O=C(O)c1c(CCS)cccc1-c1ccccc1 [Compound 47, 3-(2-mercapto-ethyl)-biphenyl-2-carboxylic acid]	4.12	–	–
O=C(O)c1ccccc1CCS [Compound 1, 2-(2-mercaptoethyl)-benzoic acid]	–	6.07	–
O=C(O)Cc1cccc(CCS)c1C(=O)O [Compound 48, 2-carboxymethyl-6-(2-mercapto-ethyl)-benzoic acid]	7.37	–	–
